The values below come from patent US20260078120A1, “SUBSTITUTED PYRIDOPYRIMIDINONES” (MIRATI THERAPEUTICS, INC., priority 2022, published 2026).

What all share (type): cell-based
Experiment [1] deals with T47D (PI3Kα H1047R mutant) cells. The experiment in a line: Inhibition of pAKT formation, alphaLISA SureFire Ultra AKT 1/2/3 (pS473), T47D cells. The following applies: Homo sapiens, T47D. The procedure, abridged:
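AKT Ser473 phosphorylation was quantified by alphaLISA SureFire Ultra after roughly 1 h or 24 h compound exposure at 37 °C. Cells were T47D (12,000/well in HBSS), treated with a 10-point 1:4 series starting at 10.4 μM. Percent of control used alpelisib background and DMSO reference, and IC50 came from four-parameter logistic fitting.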
A general note: In Alpha technology, singlet oxygen from a donor bead excites a nearby acceptor bead.

In experiment [2] the test system is SKBR3 (PI3Kα wild type) cells. The experiment in a line: CellTiter-Glo 2.0 luminescent cell viability assay, 72 hours, SKBR3 cells. As to conditions: Homo sapiens, SK-BR-3, 72 h. The procedure, abridged:
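Viability measured via CTG luminescence following roughly 72 hours of compound exposure at 37° C. Dosing used a 10 um starting concentration diluted 1:4 over 10 points; percent-of-vehicle data fitted with a variable-slope four-parameter model for IC50.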
(In ATP-based viability assays light output follows the ATP content of the culture.)

Experiment [3] relates to T47D (PI3Kα H1047R mutant) cells. As to the kind of experiment: CellTiter-Glo 2.0 luminescent cell viability assay, 72 hours, T47D cells. The following applies: Homo sapiens, T47D, 72 h. The procedure, abridged:
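Viability was measured by CellTiter-Glo 2.0 luminescence after approximately 72 h of compound exposure at 37° C. Plating was 1000 cells per well the day before dosing, with ten 1:4 dilutions from a 10 µM top concentration. Values as percent of vehicle were fitted by variable-slope log(inhibitor) regression to give IC50.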

Experiment [4] concerns SKBR3 (PI3Kα wild type) cells. As to the kind of experiment: Inhibition of pAKT formation, alphaLISA SureFire Ultra AKT 1/2/3 (pS473), SKBR3 cells. The following applies: Homo sapiens, SK-BR-3; Inhibition of pAKT in SKBR3 (PI3Kα wild type) cells; read-out: SKBR3 (WT) pAKT IC50 (nM) (H1047R mutant) IC50. The protocol: The ability of a compound of Formula (I) to inhibit the formation of pAKT was measured using alphaLISA Surefire Ultra AKT 1/2/3 (pS473) Assay Kit (#ALSU-PAKT-B50K) was obtained from Perkin Elmer (Waltham, MA).
To prepare assay plates for pAKT alphaLISA assays, cells were trypsinized, resuspended in fresh media, and viable cells were counted utilizing trypan blue exclusion. Prior to seeding, cells were washed with PBS and resuspended in HBSS (Gibco, #14025092). T47D (12,000/w), SKBR3(12,000/w), or MKN1(24,000/w) cells were seeded at 12 μl per well in a solid white flat bottom 384 cell culture plate (Perkin Elmer #6007680).
Immediately after seeding, cells were dosed using an Echo Liquid Handler (Beckman Coulter) with compounds at a […] starting concentration and serially diluted (1:4) for a total of 10 concentrations. […] Cells were incubated with the compounds (solubilized in DMSO) for approximately one hour or 24 hours at 37° C. After one hour (or 24 hours) of treatment, cells were lysed with 3 μl of the 5× lysis buffer (provided and incubated at room temperature for 15 min on a microtiter plate shaker). Once cells were sufficiently lysed, 7.5 μl of the acceptor bead mix (made using the manufacturers recommended dilutions) was added to each well and left on the microtiter plate shaker for 1 min prior to incubating plates at room temperature for one hour, in the absence of light. After one hour of incubation with the acceptor bead mix, 7.5 μl of the donor bead mix (made using the manufacturers recommended dilutions) was added to each well and left on the microtiter plate shaker for 1 min prior to incubating plates at room temperature overnight in the absence of light. Plates were then imaged the following day using a CLARIOstar microplate reader (BMG Labtech, Germany).
Percent of control values were calculated by subtracting the average signal from the positive control (alpelisib) treated wells from all treated wells (including DMSO control wells) and then divided by the average signal from the vehicle DMSO treated control wells. Percent of vehicle control values were plotted as log (inhibitor) vs. response-Variable slope (four parameters) for curve fitting and IC50 values were determined using XLfit.
Key: N.D. =not determined

[5] abbreviates: T47D (PI3Kα H1047R mutant) cells, inhibition of pAKT (pS473) formation, approximately one hour or 24 hours treatment, read-out: T47D pAKT (H1047R mutant) IC50.
The mark [6] stands for this setting: SKBR3 (PI3Kα wild type) cells, CellTiter-Glo, approximately 72 hours, read-out: SKBR3 (WT) Viability IC50.
The mark [7] stands for this setting: T47D (PI3Kα H1047R mutant) cells, CellTiter-Glo, approximately 72 hours, read-out: T47D (H1047R mutant) Viability IC50.

Molecules are shown by their SMILES.

`Cc1cc(C(C)Nc2ccccc2C(=O)O)c2nc(N3CCCCC3)cc(=O)n2c1` (stereo not drawn) [Example 2, 2-((1-(7-methyl-4-oxo-2-(piperidin-1-yl)-4H-pyrido[1,2-a]pyrimidin-9-yl)ethyl)amino) benzoic acid]: the half-inhibitory concentration (IC50) in experiment [1] (read-out: T47D pAKT (H1047R mutant) IC50 (nM)) is 14 nM; in experiment [2] (read-out: SKBR3 (WT) Viability IC50 (nM)), over 10000 nM; in experiment [3] (read-out: T47D (H1047R mutant) Viability IC50 (nM)) it was 2970 nM; in experiment [4], over 10000 nM.
In the case of `Cc1cc([C@@H](C)Nc2ccccc2C(=O)O)c2nc(N3CCC(F)(F)CC3)c(C#N)c(=O)n2c1` [Example 10-23, (R)-2-((1-(3-cyano-2-(4,4-difluoropiperidin-1-yl)-7-methyl-4-oxo-4H-pyrido[1,2-a]pyrimidin-9-yl)ethyl)amino)benzoic acid], the IC50 in experiment [1] (setting [5]) is 1.35 nM; in experiment [2] (setting [6]), 8970 nM; in experiment [3] (setting [7]), 48.3 nM; in experiment [4], 1200 nM.
On the same counts, the results for `Cc1cc([C@@H](C)Nc2ccccc2C(=O)O)c2nc(N3CC(F)(F)C3)c(C#N)c(=O)n2c1` [Example 10-27, (R)-2-((1-(3-cyano-2-(3,3-difluoroazetidin-1-yl)-7-methyl-4-oxo-4H-pyrido[1,2-a]pyrimidin-9-yl)ethyl)amino)benzoic acid] are 2.1 nM, over 10000 nM, 52 nM and 780 nM.
For `Cc1cc([C@@H](C)Nc2cscc2C(=O)O)c2nc(N3CCC(F)(F)CC3)c(C#N)c(=O)n2c1` [Example 10-61, (R)-4-((1-(3-cyano-2-(4,4-difluoropiperidin-1-yl)-7-methyl-4-oxo-4H-pyrido[1,2-a]pyrimidin-9-yl)ethyl)amino)thiophene-3-carboxylic acid] the same measures were 7.7 nM, over 10000 nM, 183 nM and 3650 nM.
On the same counts, the results for `Cc1cc([C@@H](C)Nc2cccc(F)c2C(=O)O)c2nc(N3CCC(F)(F)CC3)c(C#N)c(=O)n2c1` [Example 10-62, (R)-2-((1-(3-cyano-2-(4,4-difluoropiperidin-1-yl)-7-methyl-4-oxo-4H-pyrido[1,2-a]pyrimidin-9-yl)ethyl)amino)-6-fluorobenzoic acid] are 4.84 nM, over 10000 nM, 566 nM and 8650 nM.
For the compound `Cc1cc([C@@H](C)Nc2nccnc2C(=O)O)c2nc(N3CCC(F)(F)CC3)c(C#N)c(=O)n2c1` [Example 10-63, (R)-3-((1-(3-cyano-2-(4,4-difluoropiperidin-1-yl)-7-methyl-4-oxo-4H-pyrido[1,2-a]pyrimidin-9-yl)ethyl)amino)pyrazine-2-carboxylic acid], the IC50 in experiment [1] (setting [5]) was 144 nM; in experiment [2] (setting [6]), over 10000 nM; in experiment [3] (setting [7]), 3720 nM; in experiment [4], over 10000 nM.
`Cc1cc([C@@H](C)Nc2ccc(Cl)cc2C(=O)O)c2nc(N3CCC(F)(F)CC3)c(C#N)c(=O)n2c1` [Example 10-64, (R)-5-chloro-2-((1-(3-cyano-2-(4,4-difluoropiperidin-1-yl)-7-methyl-4-oxo-4H-pyrido[1,2-a]pyrimidin-9-yl)ethyl)amino)benzoic acid]: the 50% inhibitory concentration (IC50) is 16.1 nM in experiment [1] (setting [5]), over 10000 nM in experiment [2] (setting [6]), 628 nM in experiment [3] (setting [7]) and 847 nM in experiment [4].
On the same counts, the results for `Cc1cc([C@@H](C)Nc2ccccc2C(=O)O)c2nc(C3CCC(F)(F)CC3)c(C#N)c(=O)n2c1` [Example 10-65, (R)-2-((1-(3-cyano-2-(4,4-difluorocyclohexyl)-7-methyl-4-oxo-4H-pyrido[1,2-a]pyrimidin-9-yl)ethyl)amino)benzoic acid] are 3.25 nM, over 10000 nM, 246 nM and 681 nM.
For the compound `Cc1cc([C@@H](C)Nc2ccccc2C(=O)O)c2nc(N3CC4(C3)CC(F)(F)C4)c(C#N)c(=O)n2c1` [Example 10-66, (R)-2-((1-(3-cyano-2-(6,6-difluoro-2-azaspiro[3.3]heptan-2-yl)-7-methyl-4-oxo-4H-pyrido[1,2-a]pyrimidin-9-yl)ethyl)amino)benzoic acid], the half-maximal inhibitory concentration (IC50) in experiment [1] (setting [5]) was 1370 nM; in experiment [2] (setting [6]), over 10000 nM; in experiment [3] (setting [7]) it was over 10000 nM; in experiment [4], over 10000 nM.
For the compound `Cc1cc([C@@H](C)Nc2ccc(Cl)nc2C(=O)O)c2nc(N3CCC(F)(F)CC3)c(C#N)c(=O)n2c1` [Example 10-67, (R)-6-chloro-3-((1-(3-cyano-2-(4,4-difluoropiperidin-1-yl)-7-methyl-4-oxo-4H-pyrido[1,2-a]pyrimidin-9-yl)ethyl)amino)picolinic acid], the 50% inhibitory concentration (IC50) in experiment [1] (setting [5]) was 14.1 nM; in experiment [2] (setting [6]), over 10000 nM; in experiment [3] (setting [7]), 304 nM; in experiment [4], over 10000 nM.
With `Cc1cc([C@@H](C)Nc2ccccc2C(=O)O)c2nc(N3CCS(=O)(=O)CC3)c(C#N)c(=O)n2c1` [Example 10-68, (R)-2-((1-(3-cyano-2-(1,1-dioxidothiomorpholino)-7-methyl-4-oxo-4H-pyrido[1,2-a]pyrimidin-9-yl)ethyl)amino)benzoic acid], the 50% inhibitory concentration (IC50) in experiment [1] (setting [5]) is 375 nM; in experiment [2] (setting [6]) it was over 10000 nM; in experiment [3] (setting [7]), over 10000 nM; in experiment [4], over 10000 nM.
Take `Cc1cc([C@@H](C)Nc2ccccc2C(=O)O)c2nc(N3CC4CC(C3)C4(F)F)c(C#N)c(=O)n2c1` [Example 10-69, 2-(((1R)-1-(3-cyano-2-(6,6-difluoro-3-azabicyclo[3.1.1]heptan-3-yl)-7-methyl-4-oxo-4H-pyrido[1,2-a]pyrimidin-9-yl)ethyl)amino)benzoic acid]: the IC50 was 3.69 nM in experiment [1] (setting [5]), over 10000 nM in experiment [2] (setting [6]), 165 nM in experiment [3] (setting [7]) and 1800 nM in experiment [4].
On the same counts, the results for `Cc1cc([C@@H](C)Nc2ccccc2C(=O)O)c2nc(N3CCCCC3)c(C(N)=O)c(=O)n2c1` [Example 10-70, (R)-2-((1-(3-carbamoyl-7-methyl-4-oxo-2-(piperidin-1-yl)-4H-pyrido[1,2-a]pyrimidin-9-yl)ethyl)amino)benzoic acid] are over 10000 nM, over 10000 nM, 4680 nM and over 10000 nM.
For `Cc1cc([C@@H](C)Nc2ccccc2C(=O)O)c2nc(N3CCCCC3)c(C(F)(F)F)c(=O)n2c1` [Example 10-71, (R)-2-((1-(7-methyl-4-oxo-2-(piperidin-1-yl)-3-(trifluoromethyl)-4H-pyrido[1,2-a]pyrimidin-9-yl)ethyl)amino)benzoic acid] the same measures were over 10000 nM, over 10000 nM, 4890 nM and over 10000 nM.
On to `Cc1cc([C@@H](C)Nc2ccccc2C(=O)O)c2nc(N3CCC(C)(C)CC3)c(C#N)c(=O)n2c1` [Example 10-72, (R)-2-((1-(3-cyano-2-(4,4-dimethylpiperidin-1-yl)-7-methyl-4-oxo-4H-pyrido[1,2-a]pyrimidin-9-yl)ethyl)amino)benzoic acid], for which the IC50 in experiment [1] (setting [5]) was 1.33 nM; in experiment [2] (setting [6]), over 10000 nM; in experiment [3] (setting [7]), 151 nM; in experiment [4], 2480 nM.

A word on the IC50: it is the concentration that gives 50% inhibition.
